Laboratory results as given in PMC10064984, “Anti-cyclooxygenase, anti-glycation, and anti-skin aging effect of Dendrobium officinale flowers’ aqueous extract and its phytochemical validation in aging” (Frontiers in Immunology, 2023).
Values joined by “and” are separate entries in the source; they are usually repeats but may differ in a detail not shown here. Equal entries are not always repeated. Where two headings read alike, the source gives them in different places.

How the values were obtained:
Format in all cases: biochemical
COX-2 = biological target: T1, COX-2 (Homo sapiens, UniProt P35354); assay: Anti-COX-2 assay (COX-2 Inhibitor Screening Kit)
T1 construct: purchased Beyotime S0168
T1 sequence (P35354 18-604): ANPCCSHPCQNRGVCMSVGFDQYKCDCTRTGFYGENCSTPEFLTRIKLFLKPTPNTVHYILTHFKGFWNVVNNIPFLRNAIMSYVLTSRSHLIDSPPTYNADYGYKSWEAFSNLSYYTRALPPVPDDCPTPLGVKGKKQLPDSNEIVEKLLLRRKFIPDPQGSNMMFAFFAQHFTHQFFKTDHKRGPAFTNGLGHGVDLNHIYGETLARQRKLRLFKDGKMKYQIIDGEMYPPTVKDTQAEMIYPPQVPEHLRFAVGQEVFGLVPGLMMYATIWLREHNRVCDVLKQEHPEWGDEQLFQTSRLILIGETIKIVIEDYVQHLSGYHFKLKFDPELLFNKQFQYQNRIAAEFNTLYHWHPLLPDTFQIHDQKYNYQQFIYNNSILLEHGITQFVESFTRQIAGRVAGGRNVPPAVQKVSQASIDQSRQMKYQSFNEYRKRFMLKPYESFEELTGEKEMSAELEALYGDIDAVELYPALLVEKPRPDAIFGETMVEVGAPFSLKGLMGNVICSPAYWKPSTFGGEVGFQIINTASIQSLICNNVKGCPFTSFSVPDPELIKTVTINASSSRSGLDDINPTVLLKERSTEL

DPPH· scavenging = settings: mean ± SD, n = 3
[1] = ABTS·+ decolourisation capacity; settings: for ABTS scavenging rate: 0.5mM series, replicate wells, listed as T19; for IC50: mean ± SD, n = 3
Method in brief: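 ABTS·+ working solution in 0.2 M phosphate buffer, pH 7.4, was adjusted to A729 0.8 ± 0.05, and 100 μl was mixed with 200 μl sample; absorbance was read at 729 nm after 10 min, in triplicate. Inhibition was taken relative to a phosphate-buffer control, and IC50 was obtained graphically from dose-inhibition curves.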

[2] = Fluorescent AGEs formation in a BSA-fructose/glucose system; settings: for IC50: mean ± SD, n = 3, read-out: BSA-glycation IC50; for inhibition of fluorescent AGEs formation (BSA-抗糖化), single replicate: individual replicate; for inhibition of fluorescent AGEs formation (BSA-抗糖化), 平均 (mean): mean of 3 replicates
Method in brief: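 BSA glycated in vitro with D-glucose and D-fructose while test samples, dissolved in DMSO:water (1:4), were present. Percent inhibition of fluorescent AGE formation calculated from fluorescence corrected for sample-only and BSA-free blanks; triplicate.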

[3] = FRAP total antioxidant capacity;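 also: colourimetric FRAP kit assay read as absorbance in 96-well plates, values as mM FeSO4 via standard curve, EC1 being sample concentration matching 1.0 mmol/L FeSO4, Trolox positive control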
[4] = mean ± SD, n = 3, nd, not detected, read-out: COX-2 IC50
[5] = supplement sheet COX, read-out: COX-2 IC50, single replicate
[6] = lower part of sheet (compound series)

## O=c1cc(-c2ccc(O)c(O)c2)oc2c(C3OCC(O)C(O)C3O)c(O)c(C3OC(CO)C(O)C(O)C3O)c(O)c12 [compound 15, Luteolin-6-C-β-D-glucoside-8-C-β-D-xyloside]
COX-2
  COX-2 inhibition (in words): great COX-2 inhibition
COX-2; 3.125 μM, single replicates
  inhibition at 3.125 µM: 14.6%
COX-2; 3.125 μM, single replicates, listed as T19, 3.125 µM
  COX-2 inhibition: 14.16% and 11.51%
COX-2; 6.25 μM, single replicates
  inhibition at 6.25 µM: 39.3%
COX-2; 6.25 μM, single replicates, listed as T19, 6.25 µM
  COX-2 inhibition: 23.77% and 25.81%
COX-2; 12.5 μM, single replicates
  inhibition at 12.5 µM: 60.5%
COX-2; 12.5 μM, single replicates, listed as T19, 12.5 µM
  COX-2 inhibition: 53.05% and 54.30%
COX-2; 25 μM, single replicates
  inhibition at 25 µM: 71.9%
COX-2; 25 μM, single replicates, listed as T19, 25 µM
  COX-2 inhibition: 68.96% and 71.63%
COX-2; 50 μM, single replicates
  inhibition at 50 µM: 75.8%
COX-2; 50 μM, single replicates, listed as T19, 50 µM
  COX-2 inhibition: 74.58% and 74.45%
COX-2; 100 μM, single replicates
  inhibition at 100 µM: 83.1%
COX-2; 100 μM, single replicates, listed as T19, 100 µM
  COX-2 inhibition: 75.76% and 77.02%
COX-2; 200 μM, single replicates
  inhibition at 200 µM: 80.8%
COX-2; 200 μM, single replicates, listed as T19, 200 µM
  COX-2 inhibition: 78.95% and 81.08%
COX-2; [4]
  IC50: 13.9 ± 2.4 µM
COX-2; [5]
  IC50: 11.2 µM and 15.8 µM and 14.8 µM
DPPH· scavenging;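 also: colourimetric DPPH radical scavenging in 96-well plates, absorbance read-out, percent inhibition relative to ethanol control absorbance, IC50 derived graphically from dose-inhibition curves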
  IC50: 145 ± 51.4 µM
[1]; concentration 7.8125 (unit not given)
  ABTS scavenging rate: 33.84% and 32.82% and 31.57%
[1]; concentration 15.625 (unit not given)
  ABTS scavenging rate: 51.02% and 51.43% and 45.77%
[1]; concentration 31.25 (unit not given)
  ABTS scavenging rate: 80.79% and 81.13% and 77.35%
[1]; concentration 62.5 (unit not given)
  ABTS scavenging rate: 99.45% and 99.39% and 98.61%
[1]; concentration 125 (unit not given)
  ABTS scavenging rate: 99.58% and 99.48% and 99.50%
[1]; concentration 250 (unit not given)
  ABTS scavenging rate: 99.61% and 99.60% and 99.48%
[1]; concentration 500 (unit not given)
  ABTS scavenging rate: 99.69% (2×) and 99.56%
[1]
  IC50: 13.8 ± 0.82 µM
[2]
  IC50: 294 ± 13.3 µM
[3]; [6]
  FRAP EC1: 1100.3 ± 138.4 µM

## COc1cc(-c2oc3cc(O)cc(O)c3c(=O)c2OC2OC(CO)C(O)C(O)C2O)ccc1O (stereo not shown) [compound 32, Isorhamnetin-3-O-glucoside]
COX-2; 31.25 μM, single replicates
  inhibition at 31.25 µM: 5.99%
COX-2; 31.25 μM, single replicates, listed as T14, 31.25 µM
  COX-2 inhibition: 4.35%
COX-2; 62.5 μM, single replicates, listed as T14, 62.5 µM
  COX-2 inhibition: -8.14% and 8.77% and -5.55%
COX-2; 125 μM, single replicates, listed as T14, 125 µM
  COX-2 inhibition: 16.41% and 9.67% and 1.80%
COX-2; 250 μM, single replicates, listed as T14, 250 µM
  COX-2 inhibition: 18.89% and 38.58% and 20.11%
COX-2; 500 μM, single replicates
  inhibition at 500 µM: 53.6%
COX-2; 500 μM, single replicates, listed as T14, 500 µM
  COX-2 inhibition: 61.95% and 42.08%
COX-2; 1000 μM, single replicates
  inhibition at 1000 µM: 77.5%
COX-2; 1000 μM, single replicates, listed as T14, 1000 µM
  COX-2 inhibition: 79.82% and 70.09%
COX-2; 2000 μM (2mM), single replicates
  inhibition at 2000 µM: 76.1%
COX-2; 2000 μM (2mM), single replicates, listed as T14
  COX-2 inhibition: 78.14% and 68.80%
COX-2; [4]
  IC50: 535 ± 150 µM
COX-2; [5]
  IC50: 515 µM and 396 µM and 694 µM
DPPH· scavenging;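 also: colourimetric DPPH radical scavenging in 96-well plates, absorbance read-out, percent inhibition relative to ethanol control absorbance, IC50 derived graphically from dose-inhibition curves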
  IC50: 2370 µM
[1]
  IC50: 44.7 ± 1.52 µM
[2]; 15.625 µM, listed as T14, 15.625 µM
  inhibition of fluorescent AGEs formation (BSA-抗糖化), single replicate: 6.47% and 9.81% and 6.23%
[2]; 15.625 µM
  inhibition of fluorescent AGEs formation (BSA-抗糖化), 平均 (mean): 7.50%
[2]; 31.25 µM, listed as T14, 31.25 µM
  inhibition of fluorescent AGEs formation (BSA-抗糖化), single replicate: 13.37% and 12.51% and 13.56%
[2]; 31.25 µM
  inhibition of fluorescent AGEs formation (BSA-抗糖化), 平均 (mean): 13.15%
[2]; 62.5 µM, listed as T14, 62.5 µM
  inhibition of fluorescent AGEs formation (BSA-抗糖化), single replicate: 22.22% and 24.18% and 24.11%
[2]; 62.5 µM
  inhibition of fluorescent AGEs formation (BSA-抗糖化), 平均 (mean): 23.51%
[2]; 125 µM, listed as T14, 125 µM
  inhibition of fluorescent AGEs formation (BSA-抗糖化), single replicate: 35.72% and 35.84% and 36.17%
[2]; 125 µM
  inhibition of fluorescent AGEs formation (BSA-抗糖化), 平均 (mean): 35.91%
[2]; 250 µM, listed as T14, 250 µM
  inhibition of fluorescent AGEs formation (BSA-抗糖化), single replicate: 54.28% and 53.83% and 54.39%
[2]; 250 µM
  inhibition of fluorescent AGEs formation (BSA-抗糖化), 平均 (mean): 54.17%
[2]; 500 µM, listed as T14, 500 µM
  inhibition of fluorescent AGEs formation (BSA-抗糖化), single replicate: 70.40% and 70.98% and 71.44%
[2]; 500 µM
  inhibition of fluorescent AGEs formation (BSA-抗糖化), 平均 (mean): 70.94%
[2]; 1000 µM, listed as T14, 1000 µM
  inhibition of fluorescent AGEs formation (BSA-抗糖化), single replicate: 83.59% and 83.42% and 83.56%
[2]; 1000 µM
  inhibition of fluorescent AGEs formation (BSA-抗糖化), 平均 (mean): 83.53%
[2]; 2000 µM, listed as T14, 2000 µM
  inhibition of fluorescent AGEs formation (BSA-抗糖化), single replicate: 91.04% and 91.39% and 91.09%
[2]; 2000 µM
  inhibition of fluorescent AGEs formation (BSA-抗糖化), 平均 (mean): 91.17%
[2]; 4000 µM (series head 'T9 4000µM', 2-fold dilutions), listed as T14
  inhibition of fluorescent AGEs formation (BSA-抗糖化), single replicate: 95.57% and 95.55% and 95.41%
[2]; 4000 µM
  inhibition of fluorescent AGEs formation (BSA-抗糖化), 平均 (mean): 95.51%
[2]
  IC50: 209 ± 3.1 µM
[3]; [6]
  FRAP EC1: 2757.3 ± 103.8 µM
[3]; mean ± SD, n = 3
  FRAP EC1: 2,757.3 ± 103.8 μM

## Vicenin-3 [compound 19]
COX-2
  COX-2 inhibition (in words): no inhibitory effects
COX-2; 31.25 μM, single replicates, listed as T8, 31.25 µM
  COX-2 inhibition: -27.09% and -25.76% and -19.42%
COX-2; 62.5 μM, single replicates, listed as T8, 62.5 µM
  COX-2 inhibition: -19.03% and -34.16% and -24.78%
COX-2; 125 μM, single replicates, listed as T8, 125 µM
  COX-2 inhibition: -26.82% and -40.95% and -33.02%
COX-2; 250 μM, single replicates, listed as T8, 250 µM
  COX-2 inhibition: -32.94% and -46.72% and -42.57%
COX-2; 500 μM, single replicates, listed as T8, 500 µM
  COX-2 inhibition: -35.30% and -54.98% and -48.28%
COX-2; 1000 μM, single replicates, listed as T8, 1000 µM
  COX-2 inhibition: -23.28% and -61.50% and -50.44%
COX-2; 2000 μM (2mM), single replicates, listed as T8
  COX-2 inhibition: -50.77% and -55.05% and -54.78%
DPPH· scavenging;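 also: colourimetric DPPH radical scavenging in 96-well plates, absorbance read-out, percent inhibition relative to ethanol control absorbance, IC50 derived graphically from dose-inhibition curves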
  IC50: > 5000 µM
[1]
  IC50: 74.8 ± 0.92 µM
[2]
  IC50: 243 ± 12 µM
[3]; [6]
  FRAP EC1: >5000 µM
